Results on 11 compounds are retold here after ChEMBL document CHEMBL3046071, “Synthesis and microbial evaluation of novel N(1)-Arilidene-N(2)-t(3)-methyl-r(2),c(6)-diaryl-piperidin-4-one azine derivatives” (2006).

As a reminder, the MIC is the smallest concentration in the dilution series that meets the test's criterion for growth inhibition. Read a high MIC as weaker potency.

Type in all cases: functional
One assay relates to Staphylococcus aureus. As to the kind of experiment: Antibacterial activity against Staphylococcus aureus.
Another assay relates to Bacillus subtilis. As to the kind of experiment: Antibacterial activity against Bacillus subtilis.
In another assay the test system is Aspergillus flavus. Nature of the assay: Antifungal activity against Aspergillus flavus.
In assay [1] the test system is Candida. Nature of the assay: Antifungal activity against Candida-6.
The next assay deals with Enterococcus faecalis. Nature of the assay: Antibacterial activity against Enterococcus faecalis.
In the next assay the test system is Escherichia coli. Nature of the assay: Antibacterial activity against Escherichia coli.
The next assay has as its system Aspergillus niger. As to the kind of experiment: Antifungal activity against Aspergillus niger.
A further assay has as its system Pseudomonas aeruginosa. Nature of the assay: Antibacterial activity against Pseudomonas aeruginosa.
In assay [2] the test system is Candida. Nature of the assay: Antifungal activity against Candida-51.

Structures are written as SMILES. ≈ marks a conversion by molar mass, not a printed value.

Take `CC1/C(=N/N)CC(c2ccccc2)NC1c1ccccc1` (stereo not given): the MIC with Staphylococcus aureus, with Bacillus subtilis, in the assay on Aspergillus flavus and against Candida [1] was 100 µg/mL (≈ 358 µM) throughout.
In the case of `CC1/C(=N/N)CC(c2ccco2)NC1c1ccco1` (stereo not given), the MIC in the assay with Staphylococcus aureus, in the assay with Bacillus subtilis, in the assay with Aspergillus flavus and in the assay on Candida [1] was 100 µg/mL (≈ 386 µM) each time.
`CC1/C(=N/N=C/c2ccccc2[N+](=O)[O-])CC(c2ccccc2)NC1c1ccccc1` (stereo not given): the MIC in the assay on Enterococcus faecalis came out at 100 µg/mL (≈ 242 µM); in the assay on Staphylococcus aureus, 50 µg/mL (≈ 121 µM); in the assay with Bacillus subtilis, 50 µg/mL (≈ 121 µM); in the assay with Aspergillus flavus, 100 µg/mL (≈ 242 µM); against Escherichia coli, 100 µg/mL (≈ 242 µM); against Aspergillus niger, 50 µg/mL (≈ 121 µM). Also, the minimal inhibitory concentration (MIC) turned out to be 100 µg/mL (≈ 242 µM) with Candida [1], 50 µg/mL (≈ 121 µM) with Pseudomonas aeruginosa and 50 µg/mL (≈ 121 µM) in the assay on Candida [2].
Turning to `CC1/C(=N/N=C/c2ccccc2O)CC(c2ccccc2)NC1c1ccccc1` (stereo not given), the MIC stood at 50 µg/mL (≈ 130 µM) with Enterococcus faecalis; 50 µg/mL (≈ 130 µM) in the assay on Staphylococcus aureus; 50 µg/mL (≈ 130 µM) with Bacillus subtilis; 100 µg/mL (≈ 261 µM) in the assay with Aspergillus flavus; 100 µg/mL (≈ 261 µM) with Escherichia coli; 100 µg/mL (≈ 261 µM) in the assay with Aspergillus niger. Moreover, the MIC turned out to be 50 µg/mL (≈ 130 µM) against Candida [1], 50 µg/mL (≈ 130 µM) with Pseudomonas aeruginosa and 25 µg/mL (≈ 65.2 µM) in the assay on Candida [2].
Take `CC1/C(=N/N=C/c2ccco2)CC(c2ccccc2)NC1c1ccccc1` (stereo not given): the MIC with Enterococcus faecalis was 50 µg/mL (≈ 140 µM); in the assay on Staphylococcus aureus, 12.5 µg/mL (≈ 35 µM); with Bacillus subtilis, 12.5 µg/mL (≈ 35 µM); with Aspergillus flavus, 50 µg/mL (≈ 140 µM); with Escherichia coli, 25 µg/mL (≈ 69.9 µM); with Aspergillus niger, 12.5 µg/mL (≈ 35 µM). Moreover, the values for the MIC in the assay on Candida [1], in the assay with Pseudomonas aeruginosa and in the assay on Candida [2] were 12.5 µg/mL (≈ 35 µM), 50 µg/mL (≈ 140 µM) and 12.5 µg/mL (≈ 35 µM), respectively.
Take `CC1/C(=N/N=C/c2ccccc2Cl)CC(c2ccco2)NC1c1ccco1` (stereo not given): the MIC was 25 µg/mL (≈ 65.5 µM) against Enterococcus faecalis; 25 µg/mL (≈ 65.5 µM) in the assay on Staphylococcus aureus; 6.25 µg/mL (≈ 16.4 µM) in the assay on Bacillus subtilis; 50 µg/mL (≈ 131 µM) against Aspergillus flavus; 12.5 µg/mL (≈ 32.7 µM) against Escherichia coli; 25 µg/mL (≈ 65.5 µM) with Aspergillus niger. For the same compound, the results for the minimal inhibitory concentration (MIC) against Candida [1], with Pseudomonas aeruginosa and in the assay on Candida [2] were 12.5 µg/mL (≈ 32.7 µM), 25 µg/mL (≈ 65.5 µM) and 12.5 µg/mL (≈ 32.7 µM), respectively.
With `CC1/C(=N/N=C2\CC(c3ccccc3)NC(c3ccccc3)C2C)CC(c2ccccc2)NC1c1ccccc1` (mixture of isomers), the MIC against Enterococcus faecalis stood at 100 µg/mL; with Staphylococcus aureus, 100 µg/mL; against Bacillus subtilis, 100 µg/mL; against Aspergillus flavus, 100 µg/mL; in the assay on Escherichia coli, 50 µg/mL; against Aspergillus niger, 100 µg/mL. Moreover, the MIC turned out to be 50 µg/mL in the assay on Candida [1], 100 µg/mL against Pseudomonas aeruginosa and 100 µg/mL against Candida [2].
As to `C/C(=N\N=C1/CC(c2ccccc2)NC(c2ccccc2)C1C)c1ccccc1` (mixture of isomers), the MIC with Enterococcus faecalis came out at 25 µg/mL; in the assay on Staphylococcus aureus, 50 µg/mL; with Bacillus subtilis, 12.5 µg/mL; against Aspergillus flavus, 100 µg/mL; in the assay on Escherichia coli it was 12.5 µg/mL; against Aspergillus niger, 50 µg/mL. Further, the MIC against Candida [1] amounted to 25 µg/mL; with Pseudomonas aeruginosa, 25 µg/mL; in the assay on Candida [2], 50 µg/mL.
Consider `COc1ccc(/C=N/N=C2\CC(c3ccccc3)NC(c3ccccc3)C2C)cc1` (mixture of isomers), for which the MIC was 25 µg/mL against Enterococcus faecalis; 25 µg/mL in the assay on Staphylococcus aureus; 6.25 µg/mL against Bacillus subtilis; 100 µg/mL in the assay on Aspergillus flavus; 12.5 µg/mL in the assay on Escherichia coli; 50 µg/mL in the assay with Aspergillus niger. Moreover, the MIC came to 12.5 µg/mL against Candida [1], 50 µg/mL against Pseudomonas aeruginosa and 12.5 µg/mL in the assay with Candida [2].
For the compound `C[C@@H]1[C@H](O)[C@@H](C)/C=C/C=C/C=C/C=C/C=C/C=C/C=C/[C@H](O[C@@H]2O[C@H](C)[C@@H](O)[C@H](N)[C@@H]2O)C[C@@H]2O[C@](O)(C[C@@H](O)C[C@@H](O)[C@H](O)CC[C@@H](O)C[C@@H](O)CC(=O)O[C@H]1C)C[C@H](O)[C@H]2C(=O)O` [AMPHOTERICIN B], the MIC against Aspergillus flavus came to 50 µg/mL (≈ 54.1 µM); in the assay with Aspergillus niger, 50 µg/mL (≈ 54.1 µM); in the assay with Candida [1] it was 25 µg/mL (≈ 27.1 µM); against Candida [2], 25 µg/mL (≈ 27.1 µM).
Regarding `CN[C@@H]1[C@H](O[C@H]2[C@H](O[C@H]3[C@H](O)[C@@H](O)[C@H](N=C(N)N)[C@@H](O)[C@@H]3N=C(N)N)O[C@@H](C)[C@]2(O)C=O)O[C@@H](CO)[C@H](O)[C@H]1O` [STREPTOMYCIN], the MIC in the assay with Enterococcus faecalis turned out to be 50 µg/mL (≈ 86 µM); in the assay with Staphylococcus aureus it was 25 µg/mL (≈ 43 µM); against Bacillus subtilis, 12.5 µg/mL (≈ 21.5 µM); in the assay on Escherichia coli it was 12.5 µg/mL (≈ 21.5 µM); in the assay on Pseudomonas aeruginosa, 25 µg/mL (≈ 43 µM).
